This is an account of results in patent US20260001928A1 (CORTERIA PHARMACEUTICALS, priority 2022, published 2026).

One data set addresses T1, human CRF2a receptor (Homo sapiens, UniProt Q13324).
T1 construct: expressed in transfected cells; host or cells: TeloHEAC cells
T1 sequence (Q13324 1-411): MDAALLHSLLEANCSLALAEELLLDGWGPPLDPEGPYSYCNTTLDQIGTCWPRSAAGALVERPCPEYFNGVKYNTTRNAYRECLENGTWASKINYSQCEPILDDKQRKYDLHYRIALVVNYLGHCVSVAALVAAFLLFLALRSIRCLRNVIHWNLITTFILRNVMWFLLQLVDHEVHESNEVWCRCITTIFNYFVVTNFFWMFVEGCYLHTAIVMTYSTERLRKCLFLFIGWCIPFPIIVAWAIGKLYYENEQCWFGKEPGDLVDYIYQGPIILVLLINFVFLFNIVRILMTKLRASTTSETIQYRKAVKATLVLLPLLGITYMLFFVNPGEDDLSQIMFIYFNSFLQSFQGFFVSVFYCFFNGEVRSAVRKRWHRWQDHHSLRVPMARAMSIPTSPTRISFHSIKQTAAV
Put plainly: Activity at human CRF2a receptor, cAMP functional assay in TeloHEAC cells. Particulars: TeloHEAC cells stably expressing human CRF2a receptor, relative to urocortin 2 (100 nM = 100%). The class given is cell-based. In outline: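 cAMP accumulation was measured by HTRF 665/620 nm ratio after 30 min at 37° C compound exposure (16 twofold dilutions) of CRF2a-expressing TeloHEAC cells, 10000/well, in HEPES-buffered HBSS plus IBMX. Activity was normalised to urocortin 2 at 100 nM (100%), and EC50 was the concentration giving half-maximal activation.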

The test system of the next data set is Sprague Dawley rats. Put plainly: Effect on systolic blood pressure, telemetry in Sprague Dawley rats. The class given is in vivo, rat. Particulars: 0.1 mg/kg SC; for Systolic blood pressure (Mean) % change from baseline, 8 h / Systolic blood pressure (Mean) % change from baseline, 12 h / Systolic blood pressure (Mean) % change from baseline, 24 h: n=2; for Duration of action: last time point with an effect on BP still observed. A digest of the protocol: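 Values are % change from a 1 h pre-dose baseline in systolic pressure, tracked by telemetry for up to 48 hours after a single 0.1 mg/kg subcutaneous dose. Rats (Sprague Dawley, n=2 per peptide) carried aortic catheters and recovered at least 10 days post-surgery; duration of action marks the last time point still showing an effect.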

Data set [1] in a line: In vitro subcutaneous tissue supernatant (SCts) stability and metabolite identification, rat. Particulars: male, Sprague Dawley; rat subcutaneous tissue supernatant (SCts), 37° C, 2 h. Also noted: remaining at 2 h: dose or concentration left out as unconfirmed. It is filed as in vitro ADME.
A short description of data set [2]: Chemical stability in buffer (pH 7.4 / pH 4.5), % purity loss. The class given is physicochemical. Particulars: 40° C. vs 5° C., 14 or 28 days; for Buffer stability pH 7.4 % purity loss: 100 mM phosphate buffer pH 7.4; for Buffer stability pH 4.5 % purity loss: 100 mM acetate buffer pH 4.5. In outline:
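LC-UV gave % loss after 14 or 28 days of storage at 5 °C or 40 °C. Samples were diluted supernatants from compound incubated 1 h at room temperature at 10 mg/mL target, in 100 mM acetate pH 4.5 or 100 mM phosphate pH 7.4.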

In another data set the target is T2, CFR1R receptor (Homo sapiens, UniProt P34998).
T2 construct: host or cells: CHO-K1 (clone 2)
T2 sequence (P34998 24-415): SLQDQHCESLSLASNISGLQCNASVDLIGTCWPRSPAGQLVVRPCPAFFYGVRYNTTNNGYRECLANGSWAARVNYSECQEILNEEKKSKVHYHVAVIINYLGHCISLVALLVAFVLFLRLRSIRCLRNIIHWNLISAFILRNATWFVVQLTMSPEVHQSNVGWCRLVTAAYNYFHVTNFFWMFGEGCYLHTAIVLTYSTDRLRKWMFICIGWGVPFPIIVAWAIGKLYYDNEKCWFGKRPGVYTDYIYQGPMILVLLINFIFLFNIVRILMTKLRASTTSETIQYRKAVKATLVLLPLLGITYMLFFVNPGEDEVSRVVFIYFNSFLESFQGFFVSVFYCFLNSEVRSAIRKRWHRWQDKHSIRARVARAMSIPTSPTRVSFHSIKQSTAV
Put plainly: Activity at anti-target CFR1R receptor, cAMP assay in CRF1R-overexpression CHO-K1 cells. It is filed as cell-based. Particulars: 100% = Sauvagine at 100 nM; for EC50: cAMP. A digest of the protocol:
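Grow clone 2 to near confluence at 37° C. under 5% CO2 in F12 (Hams) with 10% FBS and G418, harvest, and freeze in 10% DMSO. Thaw and plate at 4000 cells/well. Then proceed per the TeloHAEC method, normalising to Sauvagine 100 nM as maximum.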
(Cyclic AMP is a second messenger, typically raised through Gs and lowered through Gi signalling.)

Data set [3] is described as follows: Pharmacokinetics in male Sprague Dawley rats after subcutaneous administration. Particulars: plasma, rat, IV, 0.05 mg/kg. The class given is in vivo.

*1 amine or outer side, *2 acyl side, *3 side chain or, on linkers, in order; H or OH if unused. Where a SMILES comes first, the peptide text is derived from it. Side-chain parts run from the residue outwards. [ ]: non-standard residue; d: D form. The star is where a group is joined. C20 diacid = O=C(O)CCCCCCCCCCCCCCCCCCC(=O)*; C18 diacid = O=C(O)CCCCCCCCCCCCCCCCC(=O)*; γGlu = O=C(O)[C@H](CCC(=O)[*:2])N[*:1]; Thp = NC1(C(=O)O)CCOCC1; Pentanoyl = CCCCC(=O)*; AEEA = NCCOCCOCC(=O)O; Aib = CC(C)(N)C(=O)O

In general, EC50 refers to the concentration that produces a half-maximal response. The fraction remaining is the share of the starting amount still present when the sample was taken. One may read the AUC(0-t) as the area under the concentration-time curve up to a stated or last time point. The term half-life denotes how long it takes for the measured level to halve. With `CCCCC(=O)N[C@H](C(=O)N[C@@H](CC(C)C)C(=O)N[C@@H](CO)C(=O)N[C@@H](CC(C)C)C(=O)N[C@@H](CC(=O)O)C(=O)N[C@@H](C(=O)N1CCC[C@H]1C(=O)N[C@H](C(=O)N[C@@H](CCCCN)C(=O)N[C@@H](CC(C)C)C(=O)N[C@@H](CCCCNC(=O)CC[C@H](NC(=O)CCCCCCCCCCCCCCCCC(=O)O)C(=O)O)C(=O)N[C@@H](CCCCN)C(=O)N[C@H](C(=O)N[C@@H](CC(C)C)C(=O)N[C@@H](CC(C)C)C(=O)N[C@@H](CCC(=O)O)C(=O)N[C@@H](CCC(N)=O)C(=O)N[C@@H](CCC(=O)O)C(=O)N[C@@H](CCCCN)C(=O)N[C@@H](CCC(N)=O)C(=O)N[C@@H](CCCCN)C(=O)N[C@@H](CCCCN)C(=O)N[C@@H](CCC(N)=O)C(=O)N[C@@H](CCCNC(=N)N)C(=O)N[C@@H](CCC(=O)O)C(=O)N[C@@H](CCC(N)=O)C(=O)N[C@@H](C)C(=O)N[C@@H](CCC(=O)O)C(=O)N[C@H](C(=O)N[C@@H](CC(N)=O)C(=O)NC(C)(C)C(=O)N[C@@H](CCC(N)=O)C(=O)N[C@H](C(=O)N[C@@H](CC(C)C)C(=O)N[C@@H](C)C(=O)N[C@@H](CCC(N)=O)C(=O)N[C@H](C(N)=O)C(C)C)[C@@H](C)CC)[C@@H](C)O)[C@@H](C)CC)[C@@H](C)CC)C(C)C)C(C)C` [compound 193] (Pentanoyl-VLSLD[dV]PIKLK([γGlu-C18 diacid])KILLEQEKQKKQREQAETN[Aib]QILAQV-NH2), the EC50 on human CRF2a receptor was 0.17 nM. Besides, in the data set with Sprague Dawley rats, the “Systolic blood pressure (Mean) % change from baseline, 8 h” value is on record as −20%; the “Systolic blood pressure (Mean) % change from baseline, 12 h” value was −12%; the “Systolic blood pressure (Mean) % change from baseline, 24 h” value was −8%; the Duration of action is reported as greater than 24 h. Besides, the share remaining at 2 h in data set [1] was found to be 56%. Moreover, the “Buffer stability pH 7.4 % purity loss” value in data set [2] is 0.0/Not Tested %. At CFR1R receptor, the “Emax (% I)” value is 20 % I and the EC50 was greater than 250 nM. In addition, in data set [3], the AUC(0-t) stood at 2340 ng·h/mL and the half-life was 4.9 h.

Turning to `CC[C@H](C)[C@H](NC(C)=O)C(=O)N[C@H](C(=O)N[C@@H](CC(C)C)C(=O)N[C@@H](CO)C(=O)N[C@@H](CC(C)C)C(=O)N[C@@H](CC(=O)O)C(=O)N[C@@H](C(=O)N1CCC[C@H]1C(=O)N[C@H](C(=O)N[C@@H](CCCCN)C(=O)N[C@@H](CC(C)C)C(=O)N[C@@H](CCCCNC(=O)CC[C@H](NC(=O)CCCCCCCCCCCCCCCCCCC(=O)O)C(=O)O)C(=O)N[C@@H](CCCCN)C(=O)N[C@H](C(=O)N[C@@H](CC(C)C)C(=O)N[C@@H](CC(C)C)C(=O)N[C@@H](CCC(=O)O)C(=O)N[C@@H](CCC(N)=O)C(=O)N[C@@H](CCC(=O)O)C(=O)N[C@@H](CCCCN)C(=O)N[C@@H](CCC(N)=O)C(=O)N[C@@H](CCCCN)C(=O)N[C@@H](CCCCN)C(=O)N[C@@H](CCC(N)=O)C(=O)N[C@@H](CCCNC(=N)N)C(=O)N[C@@H](CCC(=O)O)C(=O)N[C@@H](CCC(N)=O)C(=O)N[C@@H](C)C(=O)N[C@@H](CCC(=O)O)C(=O)N[C@H](C(=O)N[C@@H](CC(N)=O)C(=O)NC1(C(=O)N[C@@H](CCC(N)=O)C(=O)N[C@H](C(=O)N[C@@H](CC(C)C)C(=O)N[C@@H](C)C(=O)N[C@@H](CCC(N)=O)C(=O)N[C@H](C(N)=O)C(C)C)[C@@H](C)CC)CCOCC1)[C@@H](C)O)[C@@H](C)CC)[C@@H](C)CC)C(C)C)C(C)C` [compound 210] (Ac-IVLSLD[dV]PIKLK([γGlu-C20 diacid])KILLEQEKQKKQREQAETN[Thp]QILAQV-NH2), in the data set with Sprague Dawley rats, the “Systolic blood pressure (Mean) % change from baseline, 8 h” value is reported as −13%; the “Systolic blood pressure (Mean) % change from baseline, 12 h” value was −13%; the “Systolic blood pressure (Mean) % change from baseline, 24 h” value is recorded as −6%; the Duration of action is recorded as greater than 24 h. Besides, in data set [1], the amount remaining at 2 h is 72%. For the same molecule, in data set [2], the “Buffer stability pH 4.5 % purity loss” value is listed as 0.0/0.0 ^ % and the “Buffer stability pH 7.4 % purity loss” value is given as 0.0/0.0 ^ %. Besides, in data set [3], the AUC(0-t) was 7780 ng·h/mL and the half-life is 8.4 h.

Molecule `CC[C@H](C)[C@H](NC(C)=O)C(=O)N[C@H](C(=O)N[C@@H](CC(C)C)C(=O)N[C@@H](CO)C(=O)N[C@@H](CC(C)C)C(=O)N[C@@H](CC(=O)O)C(=O)N[C@@H](C(=O)N1CCC[C@H]1C(=O)N[C@H](C(=O)N[C@@H](CCCCN)C(=O)N[C@@H](CC(C)C)C(=O)N[C@@H](CCCCNC(=O)COCCOCCNC(=O)CC[C@H](NC(=O)CCCCCCCCCCCCCCCCC(=O)O)C(=O)O)C(=O)N[C@@H](CCCCN)C(=O)N[C@H](C(=O)N[C@@H](CC(C)C)C(=O)N[C@@H](CC(C)C)C(=O)N[C@@H](CCC(=O)O)C(=O)N[C@@H](CCC(N)=O)C(=O)N[C@@H](CCC(=O)O)C(=O)N[C@@H](CCCCN)C(=O)N[C@@H](CCC(N)=O)C(=O)N[C@@H](CCCCN)C(=O)N[C@@H](CCCCN)C(=O)N[C@@H](CCC(N)=O)C(=O)N[C@@H](CCCNC(=N)N)C(=O)N[C@@H](CCC(=O)O)C(=O)N[C@@H](CCC(N)=O)C(=O)N[C@@H](C)C(=O)N[C@@H](CCC(=O)O)C(=O)N[C@H](C(=O)N[C@@H](CC(N)=O)C(=O)NC(C)(C)C(=O)N[C@@H](CCC(N)=O)C(=O)N[C@H](C(=O)N[C@@H](CC(C)C)C(=O)N[C@@H](C)C(=O)N[C@@H](CCC(N)=O)C(=O)N[C@H](C(N)=O)C(C)C)[C@@H](C)CC)[C@@H](C)O)[C@@H](C)CC)[C@@H](C)CC)C(C)C)C(C)C` [compound 203] (Ac-IVLSLD[dV]PIKLK([AEEA-γGlu-C18 diacid])KILLEQEKQKKQREQAETN[Aib]QILAQV-NH2) showed an EC50 on human CRF2a receptor of 0.43 nM. For the same molecule, in the data set with Sprague Dawley rats, the “Systolic blood pressure (Mean) % change from baseline, 8 h” value is recorded as −18%; the “Systolic blood pressure (Mean) % change from baseline, 12 h” value is reported as −11%; the “Systolic blood pressure (Mean) % change from baseline, 24 h” value was determined as 2%; the Duration of action came out at 23 h. Further, in data set [1], the fraction remaining at 2 h is 65%. Also, in data set [2], the “Buffer stability pH 4.5 % purity loss” value is recorded as 0.0/0.0 ^ % and the “Buffer stability pH 7.4 % purity loss” value was 0.0/0.0 ^ %. Further, on CFR1R receptor, the “Emax (% I)” value is recorded as 3 % I and the EC50 is greater than 250 nM. In data set [3], the AUC(0-t) amounted to 4860 ng·h/mL and the half-life is 6.2 h.
